The structures appear in SMILES notation. Where only a bound is given, the exact number is not on record here.

For test [1], the target named is T1, Androgen receptor (Rattus norvegicus, UniProt P15207).
T1 sequence (P15207 whole entry): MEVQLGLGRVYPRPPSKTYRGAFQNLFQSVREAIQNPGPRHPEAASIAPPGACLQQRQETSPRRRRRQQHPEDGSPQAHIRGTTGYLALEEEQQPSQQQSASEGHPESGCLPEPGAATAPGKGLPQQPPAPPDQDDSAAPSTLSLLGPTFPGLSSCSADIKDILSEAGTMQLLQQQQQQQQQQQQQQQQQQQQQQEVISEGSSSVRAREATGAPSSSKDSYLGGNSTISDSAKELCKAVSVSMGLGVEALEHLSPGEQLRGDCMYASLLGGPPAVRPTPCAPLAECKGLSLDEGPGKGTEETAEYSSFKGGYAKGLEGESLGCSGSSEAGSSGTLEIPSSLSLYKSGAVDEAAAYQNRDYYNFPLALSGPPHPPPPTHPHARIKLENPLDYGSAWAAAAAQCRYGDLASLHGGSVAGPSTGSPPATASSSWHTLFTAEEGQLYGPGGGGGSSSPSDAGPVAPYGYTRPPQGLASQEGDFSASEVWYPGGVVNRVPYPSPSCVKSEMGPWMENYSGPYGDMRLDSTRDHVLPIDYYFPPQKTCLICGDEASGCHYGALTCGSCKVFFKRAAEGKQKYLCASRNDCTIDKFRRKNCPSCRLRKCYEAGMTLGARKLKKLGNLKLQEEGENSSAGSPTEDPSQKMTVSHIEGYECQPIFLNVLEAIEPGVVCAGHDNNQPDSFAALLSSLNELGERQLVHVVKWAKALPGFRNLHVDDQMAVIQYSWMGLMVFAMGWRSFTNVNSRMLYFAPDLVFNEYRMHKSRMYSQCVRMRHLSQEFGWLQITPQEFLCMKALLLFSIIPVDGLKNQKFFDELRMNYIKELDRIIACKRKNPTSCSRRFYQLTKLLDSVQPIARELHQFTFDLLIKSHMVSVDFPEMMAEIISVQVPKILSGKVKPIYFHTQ
Description: In vivo binding affinity for rat ventral prostate androgen receptor by displacement of [3H]R-1881

The target of test [2] is T2, Androgen receptor (Rattus norvegicus) (UniProt P15207).
T2 sequence (whole entry): T1 sequence (P15207 whole entry)
The test is described as follows: […] relative binding affinity (1h/18h) as ratio of binding affinities for R1881 and compound against rat ventral prostate androgen receptor using [3H]- R1881 as radioligand; <.01/<.01.

The target in test [3] is T2, Androgen receptor (Rattus norvegicus). As to the kind of experiment: […] relative binding affinity (1h/18h) as ratio of binding affinities for R1881 and compound against rat ventral prostate androgen receptor using [3H]- R1881 as radioligand; 1.2/0.05.
Test [4] addresses T1, Androgen receptor. As to the kind of experiment: […] binding affinity for rat ventral prostate androgen receptor by displacement of [3H]R-1881. The arrangement: species or system Prostate gland. A general note: Loss of bound radioactivity is the signal in a displacement assay; it reports binding, not function.
In test [5] the target is T2, Androgen receptor (Rattus norvegicus). The test is described as follows: […] relative binding affinity (1h/18h) as ratio of binding affinities for R1881 and compound against rat ventral prostate androgen receptor using [3H]- R1881 as radioligand; 0.26/0.04.
For test [6] the target is unchanged. As to the kind of experiment: […] relative binding affinity (1h/18h) as ratio of binding affinities for R1881 and compound against rat ventral prostate androgen receptor using [3H]- R1881 as radioligand; <0.01/<0.01.

With `C#C[C@]1(O)CCC2C3CC[C@H]4Cc5sc(S(C)(=O)=O)cc5C[C@]4(C)C3CC[C@@]21C` (some centres undefined), the Ki (in general, a dissociation constant, usually derived from enzyme kinetics or from competition with a known ligand) in test [1] is more than 29000 nM. The relative binding affinity (RBA) in test [2] is less than 0.01.

In the case of `C#C[C@]1(O)CCC2C3CC[C@H]4Cc5oc(S(C)(=O)=O)nc5C[C@]4(C)C3CC[C@@]21C` (some centres undefined), the relative binding affinity (RBA) in test [3] came to 1.2.

The molecule `C#C[C@]1(O)CCC2C3CC[C@H]4Cc5nc(S(C)(=O)=O)ncc5C[C@]4(C)C3CC[C@@]21C` (some centres undefined) came in with a Ki in test [4] of 3000 nM. Moreover, in test [5], the relative binding affinity (RBA) was 0.26.

Molecule `C#C[C@]1(O)CCC2C3CC[C@H]4Cc5oc(S(C)(=O)=O)cc5C[C@]4(C)C3CC[C@@]21C` (some centres undefined) returned a Ki in test [1] of 520 nM.

As to `C#C[C@]1(O)CCC2C3CC[C@H]4Cc5cc(S(C)(=O)=O)oc5C[C@]4(C)C3CC[C@@]21C` (some centres undefined), the Ki in test [1] was more than 29000 nM. Besides, the relative binding affinity (RBA) in test [6] is less than 0.01.

`C#C[C@]1(O)CCC2C3CC[C@H]4Cc5nc(S(C)(=O)=O)sc5C[C@]4(C)C3CC[C@@]21C` (some centres undefined) registered a Ki in test [1] of 860 nM.

The record behind these values is ChEMBL document CHEMBL1126028, “Antiandrogenic steroidal sulfonyl heterocycles. Utility of electrostatic complementarity in defining bioisosteric sulfonyl heterocycles” (J Med Chem, 1992).
